Molecules are shown by their SMILES. Converted amounts (≈) assume the structure as drawn.

The target of series [1] is histone deacetylase (HeLa nuclear extracts). The experiment in a line: In vitro assay for inhibition of histone deacetylase. As to conditions: [3H]acetylated histone H4 peptide substrate. It is filed as biochemical. The method, then: The in vitro assay for inhibition of histone deacetylase (see example C.1) measures the inhibition of HDAC enzymatic activity obtained with the compounds of formula (I).
HeLa nuclear extracts (supplier: Biomol) were incubated at 60 μg/ml with 2×10^−8 M of radiolabeled peptide substrate. As a substrate for measuring HDAC activity a synthetic peptide, i.e. the amino acids 14–21 of histone H4, was used. The substrate is biotinylated at the NH2-terminal part with a 6-aminohexanoic acid spacer, and is protected at the COOH-terminal part by an amide group and specifically [^3H]acetylated at lysine 16. The substrate, biotin-(6-aminohexanoic)Gly-Ala-([^3H]-acetyl-Lys-Arg-His-Arg-Lys-Val-NH2), was added in a buffer containing 25 mM Hepes, 1 M sucrose, 0.1 mg/ml BSA and 0.01% Triton X-100 at pH 7.4. After 30 min the deacetylation reaction was terminated by the addition of HCl and acetic acid. (final concentration 0.035 mM and 3.8 mM respectively). After stopping the reaction, the free ^3H-acetate was extracted with ethylacetate. After mixing and centrifugation, the radioactivity in an aliquot of the upper (organic) phase was counted in a β-counter.
For each experiment, controls (containing HeLa nuclear extract and DMSO without compound), a blank incubation (containing DMSO but no HeLa nuclear extract or compound) and samples (containing compound dissolved in DMSO and HeLa nuclear extract) were run in parallel. In first instance, compounds were tested at a concentration of 10^−5M. […] In each test the blank value was substracted from both the control and the sample values. The control sample represented 100% of substrate deactylation. For each sample the radioactivity was expressed as a percentage of the mean value of the controls. […] Herein the effects of test compounds are expressed as pIC50 (the negative log value of the IC50-value).

For series [2], the system named is A2780 ovarian carcinoma cells. The experiment in a line: Antiproliferative activity on A2780 cells (MTT). The conditions noted are these: Homo sapiens, A2780, 96 h, four days of incubation, read-out: Cellular activity pIC50 (converted). It is filed as cell-based, human. The method, then: Cellular activity of the compounds of formula (I) was determined on A2780 tumour cells using a colorimetric assay for cell toxicity or survival (Mosmann Tim, Journal of Immunological Methods 65: 55–63, 1983)(see example C.2).
All compounds tested were dissolved in DMSO and further dilutions were made in culture medium. Final DMSO concentrations never exceeded 0.1% (v/v) in cell proliferation assays. Controls contained A2780 cells and DMSO without compound and blanks contained DMSO but no cells. MTT was dissolved at 5 mg/ml in PBS. A glycine buffer comprised of 0.1 M glycine and 0.1 M NaCl buffered to pH 10.5 with NaOH (1 N) was prepared (all reagents were from Merck).
The human A2780 ovarian carcinoma cells (a kind gift from Dr. T. C. Hamilton [Fox Chase Cancer Centre, Pennsylvania, USA]) were cultured in RPMI 1640 medium supplemented with 2 mM L-glutamine, 50 μg/ml gentamicin and 10% fetal calf serum. Cells were routinely kept as monolayer cultures at 37° C. in a humidified 5% CO2 atmosphere. Cells were passaged once a week using a trypsin/EDTA solution at a split ratio of 1:40. All media and supplements were obtained from Life Technologies. Cells were free of mycoplasma contamination as determined using the Gen-Probe Mycoplasma Tissue Culture kit (supplier: BioMérieux).
Cells were seeded in NUNC™ 96-well culture plates (Supplier: Life Technologies) and allowed to adhere to the plastic overnight. Densities used for plating were 1500 cells per well in a total volume of 200 μl medium. After cell adhesion to the plates, medium was changed and drugs and/or solvents were added to a final volume of 200 μl. Following four days of incubation, medium was replaced by 200 μl fresh medium and cell density and viability was assessed using an MTT-based assay. To each well, 25 μl MTT solution was added and the cells were further incubated for 2 hours at 37° C. The medium was then carefully aspirated and the blue MTT-formazan product was solubilized by addition of 25 μl glycine buffer followed by 100 μl of DMSO. […] Within an experiment, the results for each experimental condition are the mean of 3 replicate wells. For initial screening purposes, compounds were tested at a single fixed concentration of 10^−6 M. For active compounds, the experiments were repeated to establish full concentration-response curves. For each experiment, controls (containing no drug) and a blank incubation (containing no cells or drugs) were run in parallel. The blank value was subtracted from all control and sample values. For each sample, the mean value for cell growth (in absorbance units) was expressed as a percentage of the mean value for cell growth of the control. […] Herein the effects of test compounds are expressed as pIC50 (the negative log value of the IC50-value).

A short description of series [3]: Kinetic solubility in aqueous media (nephelometry). It is filed as physicochemical. As to conditions: phosphate citrate buffer, pH 7.4, aqueous buffer, kinetic from dmso stock, phosphate citrate buffer pH 7.4, turbidity of three dilution steps; read-out: Solubility Score. The method, then:
Kinetic solubility in aqueous media measures the ability of a compound to stay in aqueous solution upon dilution (see example C.3).
DMSO-stock solutions are diluted with a single aqueous buffer solvent in 3 consecutive steps. For every dilution turbidity is measured with a nephelometer.
In the first dilution step, 10 μl of a concentrated stock-solution of the active compound, solubilized in DMSO (5 mM), was added to 100 μl phosphate citrate buffer pH 7.4 and mixed. In the second dilution step, an aliquot (20 μl) of the first dilution step was further dispensed in 100 μl phosphate citrate buffer pH 7.4 and mixed. Finally, in the third dilution step, a sample (20 μl) of the second dilution step was further diluted in 100 μl phosphate citrate buffer pH 7.4 and mixed. All dilutions were performed in 96-well plates. Immediately after the last dilution step the turbidity of the three consecutive dilution steps were measured with a nephelometer. Dilution was done in triplicate for each compound to exclude occasional errors. Based on the turbidity measurements a ranking is performed into 3 classes. Compounds with high solubility obtained a score of 3 and for this compounds the first dilution is clear. Compounds with medium solubility obtained a score of 2. For these compounds the first dilution is unclear and the second dilution is clear. […] The solubility of 112 compounds was measured.

With `O=C(NO)c1cnc(N2CCN(S(=O)(=O)c3ccc4cccnc4c3)CC2)nc1` [Compound 91], in series [1], the “Enzyme activity pIC50” value stood at 7.688. Moreover, in series [2], the IC50 was 0.783 µM. Besides, the solubility (commonly the dissolved amount per volume that the medium holds) in series [3] was over 454 µM.
For `Cn1nc(-c2ccc(S(=O)(=O)N3CCN(c4ncc(C(=O)NO)cn4)CC3)s2)cc1C(F)(F)F` [Compound 93] the same measures were 7.464, 0.455 µM and over 454 µM.
For `Cn1nc(C(F)(F)F)cc1-c1ccc(S(=O)(=O)N2CCN(c3ncc(C(=O)NO)cn3)CC2)s1` [Compound 94] the same measures were 7.497, 0.218 µM and 75.8 to 454 µM (≈ 39.2 to 235 µg/mL).
For `O=C(NO)c1cnc(N2CCN(S(=O)(=O)c3c(Cl)nc4sccn34)CC2)nc1` [Compound 95] the same measures were 7.363, 1.1 µM and over 454 µM.
In the case of `COc1ccc(S(=O)(=O)N2CCN(c3ncc(C(=O)NO)cn3)CC2)cc1OC` [Compound 96], the “Enzyme activity pIC50” value in series [1] is recorded as 7.49. Further, the IC50 in series [2] is 0.335 µM. Also, in series [3], the solubility is over 454 µM.
For `O=C(NO)c1cnc(N2CCN(S(=O)(=O)c3ccc(-c4ccc(OC(F)(F)F)cc4)cc3)CC2)nc1` [Compound 98] the same measures were 7.054, 0.356 µM and 75.8 to 454 µM (≈ 39.7 to 238 µg/mL).
On to `COc1ccc(-c2ccc(S(=O)(=O)N3CCN(c4ncc(C(=O)NO)cn4)CC3)cc2)c(OC)c1` [Compound 99], for which, in series [1], the “Enzyme activity pIC50” value is reported as 7.316. Moreover, the IC50 in series [2] is 0.242 µM. The solubility in series [3] is over 454 µM.
As for `O=C(NO)c1cnc(N2CCN(S(=O)(=O)c3ccc(-c4ccoc4)cc3)CC2)nc1` [Compound 100], the “Enzyme activity pIC50” value in series [1] worked out at 8.171. In addition, the IC50 in series [2] is 0.0579 µM. The solubility in series [3] fell in the range of 75.8 to 454 µM (≈ 32.6 to 195 µg/mL).
For `O=C(NO)c1cnc(N2CCN(S(=O)(=O)c3ccc(-c4cccc(C(F)(F)F)c4)cc3)CC2)nc1` [Compound 102] the same measures were 7.162, 0.353 µM and 75.8 to 454 µM (≈ 38.5 to 231 µg/mL).
For `COc1ccccc1-c1ccc(S(=O)(=O)N2CCN(c3ncc(C(=O)NO)cn3)CC2)cc1` [Compound 103] the same measures were 7.586, 0.149 µM and 75.8 to 454 µM (≈ 35.6 to 213 µg/mL).
On to `CC(C)(C)c1ccc(-c2ccc(S(=O)(=O)N3CCN(c4ncc(C(=O)NO)cn4)CC3)cc2)cc1` [Compound 105], for which the “Enzyme activity pIC50” value in series [1] was 6.494. Besides, the IC50 in series [2] is 0.798 µM. Also, the solubility in series [3] was under 75.8 µM.
For `Cc1ccccc1-c1ccc(S(=O)(=O)N2CCN(c3ncc(C(=O)NO)cn3)CC2)cc1` [Compound 106] the same measures were 7.797, 0.258 µM and 75.8 to 454 µM (≈ 34.4 to 206 µg/mL).
Regarding `O=C(NO)c1cnc(N2CCN(S(=O)(=O)c3ccc(-c4ccc(F)cc4F)cc3)CC2)nc1` [Compound 107], in series [1], the “Enzyme activity pIC50” value was determined as 7.663. In series [2], the IC50 was 0.144 µM. Further, the solubility in series [3] lay in the range of 75.8 to 454 µM (≈ 36 to 216 µg/mL).
For `O=C(NO)c1cnc(N2CCN(S(=O)(=O)c3ccc(-c4ccccc4Cl)cc3)CC2)nc1` [Compound 108] the same measures were 8.117, 0.209 µM and under 75.8 µM.
For `O=C(NO)c1cnc(N2CCN(S(=O)(=O)c3ccc(/C=C/c4ccccc4)cc3)CC2)nc1` [Compound 109] the same measures were 7.176, 0.258 µM and 75.8 to 454 µM (≈ 35.3 to 212 µg/mL).
For `O=C(NO)c1cnc(N2CCN(S(=O)(=O)c3ccc(-c4ccccc4C(F)(F)F)cc3)CC2)nc1` [Compound 110] the same measures were 7.713, 0.445 µM and 75.8 to 454 µM (≈ 38.5 to 231 µg/mL).
`O=C(NO)c1cnc(N2CCN(S(=O)(=O)c3ccc(-c4cccc5cccnc45)cc3)CC2)nc1` [Compound 111]: the “Enzyme activity pIC50” value in series [1] is on record as 7.561. In addition, the IC50 in series [2] is 0.44 µM. For the same compound, the solubility in series [3] is under 75.8 µM.
For `Cc1noc(C)c1-c1ccc(S(=O)(=O)N2CCN(c3ncc(C(=O)NO)cn3)CC2)cc1` [Compound 112] the same measures were 7.54, 0.33 µM and over 454 µM.
For `O=C(NO)c1cnc(N2C[C@@H]3C[C@H]2CN3S(=O)(=O)c2ccc3ccccc3c2)nc1` [Compound 114] the same measures were 7.428, 0.75 µM and over 454 µM.
`CN(C)Cc1sccc1-c1ccc(S(=O)(=O)N2CCN(c3ncc(C(=O)NO)cn3)CC2)cc1` [Compound 124]: the “Enzyme activity pIC50” value in series [1] is reported as 8.358. Moreover, the IC50 in series [2] was 0.0479 µM. Also, the solubility in series [3] is over 454 µM.
For `O=C(NO)c1cnc(N2CCN(S(=O)(=O)c3ccc(-c4ccccc4OCCN4CCCC4)cc3)CC2)nc1` [Compound 125] the same measures were 8.659, 0.0931 µM and 75.8 to 454 µM (≈ 41.9 to 251 µg/mL).
On to `O=C(NO)c1cnc(N2CCN(S(=O)(=O)c3ccc(-c4cccc(CCN5CCCC5)c4)cc3)CC2)nc1` [Compound 127], for which the “Enzyme activity pIC50” value in series [1] turned out to be 8.482. Moreover, in series [2], the IC50 is 0.0689 µM. Further, the solubility in series [3] is over 454 µM.
For `O=C(NO)c1cnc(N2CCN(S(=O)(=O)c3ccc(-c4ccccc4)cc3)CC2)nc1` [Compound 128] the same measures were 8.078, 0.0813 µM and 75.8 to 454 µM (≈ 33.3 to 200 µg/mL).
For `O=C(NO)c1cnc(N2CCN(S(=O)(=O)c3ccc(-c4cccc5c4sc4ccccc45)cc3)CC2)nc1` [Compound 130] the same measures were 6.159, 0.752 µM and 75.8 to 454 µM (≈ 41.4 to 248 µg/mL).
For `O=C(NO)c1cnc(N2CCN(S(=O)(=O)c3ccc(-c4cccc5c4oc4ccccc45)cc3)CC2)nc1` [Compound 131] the same measures were 6.058, 0.546 µM and 75.8 to 454 µM (≈ 40.1 to 241 µg/mL).

For the origin of these results see US7205304B2, “Sulfonyl-Derivatives as novel inhibitors of histone deacetylase” (Janssen Pharmaceutica N.V., priority 2002, dated 2007).
